Data published in ChEMBL document CHEMBL4184230, “Design, synthesis and biological evaluation of novel pyrazolo-oxothiazolidine derivatives as antiproliferative agents against human lung cancer cell line A549” (Bioorg Med Chem Lett, 2018).
Values after ≈ are worked out from the molar mass of the structure shown.

Test system: A549
Test: Antiproliferative activity against human A549 cells incubated for 96 hrs by MTT assay
Type: functional, cell-based
Settings: A549, 96 h

| Structure (SMILES) | IC50 [µg/mL] |
| --- | --- |
| CCOC(=O)/C=C1/SC(N2N=C(c3cc4ccccc4o3)CC2c2ccc(OC)cc2)=NC1=O (stereo unspecified) | 1.21 (≈ 2.54 µM) |
| CCOC(=O)/C=C1/SC(N2N=C(c3cc4ccccc4o3)CC2c2ccc(Cl)cc2)=NC1=O (stereo unspecified) | > 5 |
| CCOC(=O)/C=C1/SC(N2N=C(c3cc4ccccc4o3)CC2c2ccc(F)cc2)=NC1=O (stereo unspecified) | 0.93 (≈ 2.01 µM) |
| CCOC(=O)/C=C1/SC(N2N=C(c3cc4ccccc4o3)CC2c2ccc(OC)c(OC)c2)=NC1=O (stereo unspecified) | 3.42 (≈ 6.76 µM) |
| CNC(=O)c1cc(Oc2ccc(NC(=O)Nc3ccc(Cl)c(C(F)(F)F)c3)cc2)ccn1 [SORAFENIB] | 3.78 (≈ 8.13 µM) |

Results, then the compound that gave them:

| IC50 [µg/mL] | Structure (SMILES) |
| --- | --- |
| 0.967 (≈ 1.97 µM) | COC(=O)/C=C1/SC(N2N=C(c3cc4ccccc4o3)CC2c2ccc(OC)c(OC)c2)=NC1=O (stereo unspecified) |
| 4.29 (≈ 8.41 µM) | COC(=O)/C=C1/SC(N2N=C(c3cc4ccccc4o3)CC2c2cccc(Br)c2)=NC1=O (stereo unspecified) |
| > 5 | CCOC(=O)/C=C1/SC(N2N=C(c3cc4ccccc4o3)CC2c2cccc(Br)c2)=NC1=O (stereo unspecified) |
| 1.08 (≈ 2.31 µM) | COC(=O)/C=C1/SC(N2N=C(c3cc4ccccc4o3)CC2c2ccc(Cl)cc2)=NC1=O (stereo unspecified) |
| 0.808 (≈ 1.8 µM) | COC(=O)/C=C1/SC(N2N=C(c3cc4ccccc4o3)CC2c2ccc(F)cc2)=NC1=O (stereo unspecified) |
| 2.44 (≈ 5.3 µM) | COC(=O)/C=C1/SC(N2N=C(c3cc4ccccc4o3)CC2c2ccc(OC)cc2)=NC1=O (stereo unspecified) |
